Results as given in patent publication US8771967B2, “Immunomodulation of functional T cell assays for diagnosis of infectious or autoimmune disorders” (priority 2010, dated 2014).

Tests used:
[1] = system: M. tuberculosis-specific T cells; experiment: QuantiFERON-TB Gold In-Tube (QFT-GIT) whole blood IFN-γ release assay with immunomodulation by TLR agonists; details: for IFN-γ responses compared to the standard assay in anergic subjects / IFN-γ response at intermediate concentration / enhancement of IFN-γ response (median): poly(I:C) 40 μg/ml, imiquimod 2 μg/ml; for IFN-γ responses compared to the standard assay in anergic subjects: P <0.05; for IFN-γ response compared to the standard assay, two concentrations: 8 subjects with LTBI, poly(I:C) 10 and 100 μg/ml, LPS 125 and 500 pg/ml, imiquimod 1 and 5 μg/ml; for enhancement of IFN-γ response (median): vs standard QFT-GIT; for recapitulation of the effects of TLR agonists on the QFT-GIT assay: IL-6 at 200 and 2000 pg/ml, IL-12 at 12.5 and 25 pg/ml, INF-α at 15 and 30 pg/ml, alone or in combination; for kinetics of IFN-γ release: QFT-GIT with immunomodulation vs without, correlated with cytokine induction / APC maturation
Source text: Healthy adults were recruited from the Stanford Hospital clinical laboratories using a protocol approved by the Institutional Review Board. After obtaining in informed consent, volunteers were asked to complete a standardized questionnaire to assess risk factors for TB exposure. LTBI was defined as prior history of positive TST and QFT-GIT and ≧1 risk factor for LTBI. Uninfected control was defined as US born with prior negative TST and QFT-GIT and no risk factors.
The QFT-GIT assay was performed according to package insert with a slight modification described below. Up to 10 μA of each TLR agonist or an equivalent volume of endotoxin-free water was added to each QFT-GIT tube. Blood was collected in a 10 mL Kendall Monoject Green Stopper tube and 1 mL was quickly transferred to each QFT-GIT tube. Tubes were placed in a 3TC incubator for 22 hours or as indicated. ELISA was performed according to package insert. […] Calculation of IFN-γ concentrations was done with the software provided by the manufacturer.
Statistical analyses were performed using the Prism software (Graph Pad, San Diego, Calif.). The Wilcoxon's test of medians was used to compare differences in medians. All statistical tests were computed for a two-sided type I error rate of 5%.

[2] = system: blood cells in the Nil tube; experiment: Cytokine profiling of plasma from the QFT-GIT Nil tube after immunomodulation; assay type: cell-based, human; details: poly(I:C) 40 μg/ml, LPS 250 pg/ml, 22 h
Procedure: Was performed at the Human Immune Monitoring Center (HIMC) at Stanford University. 100 μl of plasma from the QFT-GIT Nil tube was subjected to cytokine profiling. Procarta Cytokine Assay custom 51-plex kit (Affymetrix, Palo Alto, Calif.) was used according to manufacturer's recommendations.

antigen presenting cells = experiment: Flow cytometry of surface expression of MHC and costimulatory molecules in the QFT-GIT assay; assay type: cell-based, human; details: compared to unstimulated blood cells; LPS 250 pg/ml, poly(I:C) 40 μg/ml; 3 and 6 hours
Procedure: The QFT-GIT tubes were incubated upside down to prevent migration of cells into the gel layer. At the end of incubation 100 μl of 20 mM EDTA was added per tube. Samples were vortexed and incubated at room temperature for 15 minutes. Blood was transferred to a 15 ml polypropylene tube containing 9 ml of 1×FACS™ Lysing Solution (BD Biosciences, Immunocytometry Systems, San Jose, Calif.). Samples were incubated at room temperature for 10 minutes and directly transferred to a −70° C. freezer for storage. The cell surface immune profiling studies were performed at the HIMC. The cells were thawed in warm media, washed once with FACS buffer (PBS supplemented with 2% FBS and 0.1% sodium azide) and resuspended at 1×10^7 viable cells/ml. 5×10^5 cells per well were stained for 45 min at room temperature with the following antibodies: All reagents were purchased from BD Biosciences. Cells were washed three times with FACS buffer, and resuspended in […]. 10,000 cells per sample were collected using DIVA 6.0 software on an LSR11 flow cytometer (BD Biosciences). Data analysis was performed using FlowJo v9.3 by gating on live cells based on forward versus side scatter profiles, then on singlets using forward scatter area versus height, followed by cell subset-specific gating.

[3] = 8 individuals with histories of LTBI but currently negative QFT-GIT, LPS 250 pg/ml
[4] = subjects with LTBI, LPS 250 pg/ml
[5] = uninfected controls, LPS 250 pg/ml

CC(C)Cn1cnc2c(N)nc3ccccc3c21 [imiquimod]
IFN-γ responses compared to the standard assay in anergic subjects [1, 3]: significantly increased
IFN-γ response compared to the standard assay, two concentrations [1]: dose-dependent enhancement
IFN-γ response at intermediate concentration [1, 4]: significant enhancement
enhancement of IFN-γ response (median) [1, 4]: 3 fold
IFN-γ response at intermediate concentration [1, 5]: not in the uninfected controls

IL-6: inflammatory cytokine purchased from R&D System
recapitulation of the effects of TLR agonists on the QFT-GIT assay [1]: failed to recapitulate

lipopolysaccharide [LPS]
consistency in eliciting a response higher than the cutoff value for the standard assay ([1]; 8 individuals with histories of LTBI but currently negative QFT-GIT, cutoff 0.35 IU/ml): most consistent
IFN-γ responses compared to the standard assay in anergic subjects [1, 3]: significantly increased
IFN-γ response compared to the standard assay, two concentrations [1]: dose-dependent enhancement
kinetics of IFN-γ release [1]: earlier and more robust release of IFN-γ
IFN-γ response at intermediate concentration [1, 4]: significant enhancement
enhancement of IFN-γ response (median) [1, 4]: 3.1 fold
magnitude of the IFN-γ responses (TB Ag minus Nil) [1, 5]: ≤ 0.5 IU/ml
IFN-γ response at intermediate concentration [1, 5]: significantly increased
levels of IL-6, IL-12 p40, IFN-α, and other cytokines [2]: significantly increased
surface expression of MHC II and costimulatory molecules in monocytes and partially in B cells and myeloid dendritic cells (antigen presenting cells): increased

poly(I:C)
IFN-γ responses compared to the standard assay in anergic subjects [1, 3]: significantly increased
IFN-γ response compared to the standard assay, two concentrations [1]: dose-dependent enhancement
kinetics of IFN-γ release [1]: earlier and more robust release of IFN-γ
IFN-γ response at intermediate concentration [1, 4]: significant enhancement
enhancement of IFN-γ response (median) [1, 4]: 5.7 fold
IFN-γ response at intermediate concentration [1, 5]: not in the uninfected controls
levels of IL-6, IL-12 p40, IFN-α, and other cytokines [2]: significantly increased
surface expression of MHC II and costimulatory molecules in monocytes and partially in B cells and myeloid dendritic cells (antigen presenting cells): not

B1: IL-12: inflammatory cytokine purchased from R&D System (protein, UniProt P29459 23-219; P29460 23-328, looked up)
Interleukin-12 subunit alpha: RNLPVATPDPGMFPCLHHSQNLLRAVSNMLQKARQTLEFYPCTSEEIDHEDITKDKTSTVEACLPLELTKNESCLNSRETSFITNGSCLASRKTSFMMALCLSSIYEDLKMYQVEFKTMNAKLLMDPKRQIFLDQNMLAVIDELMQALNFNSETVPQKSSLEEPDFYKTKIKLCILLHAFRIRAVTIDRVMSYLNAS
Interleukin-12 subunit beta: IWELKKDVYVVELDWYPDAPGEMVVLTCDTPEEDGITWTLDQSSEVLGSGKTLTIQVKEFGDAGQYTCHKGGEVLSHSLLLLHKKEDGIWSTDILKDQKEPKNKTFLRCEAKNYSGRFTCWWLTTISTDLTFSVKSSRGSSDPQGVTCGAATLSAERVRGDNKEYEYSVECQEDSACPAAEESLPIEVMVDAVHKLKYENYTSSFFIRDIIKPDPPKNLQLKPLKNSRQVEVSWEYPDTWSTPHSYFSLTFCVQVQGKSKREKKDRVFTDKTSATVICRKNASISVRAQDRYYSSSWSEWASVPCS
recapitulation of the effects of TLR agonists on the QFT-GIT assay [1]: failed to recapitulate
